Experimental data from ChEMBL document CHEMBL3045537, “Synthesis of 2-(aryl)-5-(arylidene)-4-thiazolidinone derivatives with potential analgesic and anti-inflammatory activity” (2012).

Experiments:
Assay type in all cases: functional
[1] = test system: Mus musculus; test: Analgesic activity in Mus musculus (mouse) assessed as protection against acetic acid-induced writhing at 10 mg/kg, po administered 30 min prior challenge measured for 20 min
[2] = test system: Rattus norvegicus; test: Anti-inflammatory activity inRattus norvegicus albino (rat) assessed as reduction of carrageenan-induced paw edema at 10 mg/kg, po administered 1 hr prior challenge measured after 2 hr post challenge by plethismometer; set-up: scale not given: the % may be the effect or the level left
[3] = test system: Rattus norvegicus; test: Anti-inflammatory activity inRattus norvegicus albino (rat) assessed as reduction of carrageenan-induced paw edema at 10 mg/kg, po administered 1 hr prior challenge measured after 4 hr post challenge by plethismometer; set-up: scale not given: the % may be the effect or the level left

Structure (SMILES): O=C(NN1C(=O)/C(=C/c2ccccc2)SC1c1ccc(Cl)cc1)c1ccc(-c2ccccc2)cc1 (configuration not stated)
- Activity [1]: 20.43%
- Activity [2]: 48.92%
- Activity [3]: 55.11%

Structure (SMILES): O=C(NN1C(=O)/C(=C/c2cccc([N+](=O)[O-])c2)SC1c1ccc(Cl)cc1)c1ccc(-c2ccccc2)cc1 (configuration not stated)
- Activity [1]: 27.5%
- Activity [2]: 45.21%
- Activity [3]: 56.35%

Structure (SMILES): O=C(NN1C(=O)/C(=C/c2ccc(Cl)cc2)SC1c1ccc(Cl)cc1)c1ccc(-c2ccccc2)cc1 (configuration not stated)
- Activity [1]: 22.93%
- Activity [2]: 46.14%
- Activity [3]: 55.34%

Structure (SMILES): O=C(NN1C(=O)/C(=C/c2cccc(Br)c2)SC1c1ccc(Cl)cc1)c1ccc(-c2ccccc2)cc1 (configuration not stated)
- Activity [1]: 17.93%
- Activity [2]: 44.56%
- Activity [3]: 54.8%

Structure (SMILES): COc1ccc(/C=C2\SC(c3ccc(Cl)cc3)N(NC(=O)c3ccc(-c4ccccc4)cc3)C2=O)cc1 (configuration not stated)
- Activity [1]: 29.6%
- Activity [2]: 45.83%
- Activity [3]: 53.87%

Structure (SMILES): O=C(NN1C(=O)/C(=C/c2ccccc2)SC1c1cccc([N+](=O)[O-])c1)c1ccc(-c2ccccc2)cc1 (configuration not stated)
- Activity [1]: 40.85%
- Activity [2]: 38.09%
- Activity [3]: 47.99%

Structure (SMILES): O=C(NN1C(=O)/C(=C/c2cccc([N+](=O)[O-])c2)SC1c1cccc([N+](=O)[O-])c1)c1ccc(-c2ccccc2)cc1 (configuration not stated)
- Activity [1]: 43.35%
- Activity [2]: 39.63%
- Activity [3]: 51.37%

Structure (SMILES): O=C(NN1C(=O)/C(=C/c2ccc(Cl)cc2)SC1c1cccc([N+](=O)[O-])c1)c1ccc(-c2ccccc2)cc1 (configuration not stated)
- Activity [1]: 46.25%
- Activity [2]: 39.94%
- Activity [3]: 49.23%

Structure (SMILES): O=C(NN1C(=O)/C(=C/c2cccc(Br)c2)SC1c1cccc([N+](=O)[O-])c1)c1ccc(-c2ccccc2)cc1 (configuration not stated)
- Activity [1]: 37.5%
- Activity [2]: 38.7%
- Activity [3]: 50.78%

Structure (SMILES): COc1ccc(/C=C2\SC(c3cccc([N+](=O)[O-])c3)N(NC(=O)c3ccc(-c4ccccc4)cc3)C2=O)cc1 (configuration not stated)
- Activity [1]: 37.93%
- Activity [2]: 37.78%
- Activity [3]: 48.92%

Structure (SMILES): COc1ccc(C2S/C(=C\c3ccccc3)C(=O)N2NC(=O)c2ccc(-c3ccccc3)cc2)cc1 (configuration not stated)
- Activity [1]: 38.35%
- Activity [2]: 45.83%
- Activity [3]: 68.74%

Structure (SMILES): COc1ccc(C2S/C(=C\c3cccc([N+](=O)[O-])c3)C(=O)N2NC(=O)c2ccc(-c3ccccc3)cc2)cc1 (configuration not stated)
- Activity [1]: 36.25%
- Activity [2]: 47.68%
- Activity [3]: 71.21%

Structure (SMILES): COc1ccc(C2S/C(=C\c3ccc(Cl)cc3)C(=O)N2NC(=O)c2ccc(-c3ccccc3)cc2)cc1 (configuration not stated)
- Activity [1]: 32.1%
- Activity [2]: 57.9%
- Activity [3]: 71.83%

Structure (SMILES): COc1ccc(C2S/C(=C\c3cccc(Br)c3)C(=O)N2NC(=O)c2ccc(-c3ccccc3)cc2)cc1 (configuration not stated)
- Activity [1]: 33.35%
- Activity [2]: 46.75%
- Activity [3]: 69.05%

Structure (SMILES): COc1ccc(/C=C2\SC(c3ccc(OC)cc3)N(NC(=O)c3ccc(-c4ccccc4)cc3)C2=O)cc1 (configuration not stated)
- Activity [1]: 40.43%
- Activity [2]: 49.54%
- Activity [3]: 70.28%

Structure (SMILES): O=C(NN1C(=O)/C(=C/c2ccc(Cl)cc2)SC1c1ccc(F)cc1)c1ccc(-c2ccccc2)cc1 (configuration not stated)
- Activity [1]: 46.25%
- Activity [2]: 43.64%
- Activity [3]: 52.92%

Structure (SMILES): O=C(NN1C(=O)/C(=C/c2cccc(Br)c2)SC1c1ccc(F)cc1)c1ccc(-c2ccccc2)cc1 (configuration not stated)
- Activity [1]: 37.5%
- Activity [2]: 41.76%
- Activity [3]: 52.08%

Structure (SMILES): COc1ccc(/C=C2\SC(c3ccc(F)cc3)N(NC(=O)c3ccc(-c4ccccc4)cc3)C2=O)cc1 (configuration not stated)
- Activity [1]: 37.93%
- Activity [2]: 45.82%
- Activity [3]: 53.62%

Structure (SMILES): O=C([O-])Cc1ccccc1Nc1c(Cl)cccc1Cl.[Na+] [DICLOFENAC SODIUM]
- Activity [1]: 68.5%
- Activity [2]: 54.18%
- Activity [3]: 79.26%
